Test results reported in patent publication US20250257075A1, “MACROCYCLIC INHIBITORS OF KRAS FOR THE TREATMENT OF CANCER” (Hoffmann-La Roche Inc., priority 2022, published 2025).

Tests used:
[1] = test system: NCI-H358 cells (KRAS G12C); assay: Cell viability assay, G12C; type: cell-based, human; details: Homo sapiens; NCI-H358, 72 hrs, Cell Counting Kit-8
Procedure: (§1) The purpose of this cellular assay was to determine the effects of test compounds on the proliferation of human cancer cell lines NCI-H358 (ATCC-CRL5807) cells, AGS (ATCC-CRL-1739) cells, SW620 (ATCC-CCL-227) over a 3-day treatment period by quantifying the amount of NADPH present at endpoint using Cell Counting Kit-8.
(§2) Cells were seeded at 5,000 cells/well (NCI-H358), 2,000 cells/well (AGS) 2,000 cells/well (SW620) in 96-well assay plates (Corning-3699) and incubated overnight. On the day of the assay, diluted compounds were then added in a final concentration of 0.5% DMSO. After 72 hrs incubation, a tenth of the volume of cell counting kit 8 (Dnjindo-CK04) was added into each well. Read the signal (OD450 minus OD650) using EnVision after 2 hrs incubation. IC50 was determined by fitting a 4-parameter sigmoidal concentration response model.

AGS cells (KRAS G12D) = assay: Cell viability assay, G12D; type: cell-based, human; details: Homo sapiens, 72 hrs, Cell Counting Kit-8
Procedure: as §1, §2

SW620 cells (KRAS G12V) = assay: Cell viability assay, G12V; type: cell-based, human; details: Homo sapiens, SW-620; SW620, 72 hrs, Cell Counting Kit-8
Procedure: as §1, §2

KRAS G12C-BRAF complex [2] = molecular target: T1, KRAS G12C-BRAF complex (Homo sapiens, UniProt P01116+P62937, G12C); assay: KRAS G12C-BRAF NanoBit assay in HEK293 cells; type: cell-based; details: HEK293 stable cell pool, 3 hours of incubation
T1 construct: expressed in transfected cells
T1 sequence (P01116 1-188 isoform P01116-2 G12C): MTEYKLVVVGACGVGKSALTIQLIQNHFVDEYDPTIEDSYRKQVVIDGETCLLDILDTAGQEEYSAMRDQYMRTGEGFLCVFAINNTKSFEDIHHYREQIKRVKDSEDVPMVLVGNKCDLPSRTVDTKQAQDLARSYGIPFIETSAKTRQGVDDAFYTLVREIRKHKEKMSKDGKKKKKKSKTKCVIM
T1 sequence (P62937 whole entry): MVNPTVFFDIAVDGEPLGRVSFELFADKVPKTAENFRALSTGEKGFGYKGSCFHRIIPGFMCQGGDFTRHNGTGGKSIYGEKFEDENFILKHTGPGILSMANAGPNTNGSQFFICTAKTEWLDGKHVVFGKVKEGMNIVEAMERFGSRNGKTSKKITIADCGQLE
Procedure: This assay is to measure the ability of tested compounds in disruption of the KRAS G12C-BRAF complex at the cellular level, we established the NanoBit cellular assay in mammalian HEK293 (ATCC) cells. HEK293 cells were grown and maintained using DMEM medium (Thermo Fisher Scientific) with 10% fetal bovine serum and 1% penicillin/streptomycin. Both KRAS G12C and BRAF RBD were cloned into the NanoBit vectors ([…] vectors system, Promega) with the orientations SmBit-KRAS G12C and BRAF RBD-LgBit, respectively, and co-transfected into HEK293 cells. Cells were then selected with 100 μg/mL Hygromycin B (10687010, Thermo Fisher) and Blasticidin (5 μg/mL) for 4 weeks to get the stable cell pool. On the day of the assay, 75 nL of compound solution was presented in a 384-well assay plate as a 16-point 3-fold dilution starting from a final concentration of 30 μM in DMSO. Then cells were seeded at 10,000 cells/25 μL/well in a 384-well plate. After 3 hours of incubation, 6 μL of volume of Nano-Glo® Live Cell Substrate (Promega) was added into each well. Monitor luminescence using ultra384 model in Envision at 20 minutes. Compounds that facilitate disruption of the KRAS G12C-BRAF RBD complex were identified as those eliciting a decrease of luminescence relative to DMSO control wells.

KRAS G12C-BRAF complex [3] = molecular target: T1, KRAS G12C-BRAF complex; assay: KRAS-BRAF with CYPA (500 nM) interaction assay (TR-FRET), G12C; type: biochemical; details: 3 hours
Procedure: (§3) Kras-BRAF with CYPA (500 nM) Interaction Assay In this example, TR-FRET was also used to measure the compound or compound-CYPA dependent disruption of the KRAS G12C-BRAF complex. This protocol was also used to measure disruption of KRAS G12D or KRAS G12V binding to BRAF by a compound of the invention, respectively. […] TR-FRET signal was read on a […] microplate reader (Ex320 nm, Em 665/615 nm). Compounds that facilitate disruption of the KRAS-BRAF complex were identified as those eliciting a decrease in the TR-FRET ratio relative to DMSO control wells.

[4] = molecular target: KRAS G12D binding to BRAF (Homo sapiens, UniProt P01116+P62937, G12D); assay: KRAS-BRAF with CYPA (500 nM) interaction assay (TR-FRET), G12D; type: biochemical; details: 3 hours
Sequence of KRAS G12D binding to BRAF (P01116 1-188 isoform P01116-2 G12D): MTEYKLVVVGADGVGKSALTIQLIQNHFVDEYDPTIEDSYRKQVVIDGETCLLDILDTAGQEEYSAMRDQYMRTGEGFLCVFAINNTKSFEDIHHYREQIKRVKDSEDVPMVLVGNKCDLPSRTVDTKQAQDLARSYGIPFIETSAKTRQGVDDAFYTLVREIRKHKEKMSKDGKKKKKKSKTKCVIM
Sequence of KRAS G12D binding to BRAF (P62937 whole entry): as the sequence (P62937 whole entry) above
Procedure: as §3

[5] = molecular target: KRAS G12V binding to BRAF (Homo sapiens, UniProt P01116+P62937, G12V); assay: KRAS-BRAF with CYPA (500 nM) interaction assay (TR-FRET), G12V; type: biochemical; details: 3 hours
Sequence of KRAS G12V binding to BRAF (P01116 1-188 isoform P01116-2 G12V): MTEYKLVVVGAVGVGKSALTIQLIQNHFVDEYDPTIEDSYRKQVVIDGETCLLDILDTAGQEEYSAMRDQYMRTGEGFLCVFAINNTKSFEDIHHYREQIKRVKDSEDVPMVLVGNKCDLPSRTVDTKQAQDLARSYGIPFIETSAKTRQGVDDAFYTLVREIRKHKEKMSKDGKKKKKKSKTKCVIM
Sequence of KRAS G12V binding to BRAF (P62937 whole entry): as the sequence (P62937 whole entry) above
Procedure: as §3

[6] = test system: phosphorylation of ERK, KRAS G12C in NCI-H358 cells; assay: pERK inhibition assay, G12C; type: cell-based, human; details: Homo sapiens; NCI-H358, 4 hours of incubation
Procedure: (§4) This assay is to measure the ability of test compounds in inhibiting the phosphorylation of ERK, the downstream signaling of KRAS G12C in NCI-H358 cells, KRAS G12D in AGS cells, and KRAS G12V in SW620. NCI-H358 (ATCC-CRL5807) cells, AGS (ATCC-CRL-1739) cells, SW620 (ATCC-CCL-227) cells were all grown and maintained using RPMI-1640 medium (Thermo Fisher Scientific) with 10% fetal bovine serum and 1% penicillin/streptomycin. On the day prior to compound addition, cells were plated in tissue culture-treated 96 well plates (Corning-3699) at a density of 30,000 cell/well, 20,000 cell/well, 30,000 cell/well for NCI-H358, AGS and SW620 respectively, and allowed for attachment overnight. Diluted compounds were then added in a final concentration of 0.5% DMSO. After 4 hours of incubation, the medium was removed, 100 μL of 4% formaldehyde was added, and the assay plates were incubated at room temperature for 20 minutes. The plates were then washed once with phosphate buffered saline (PBS), and permeabilized with 100 μL of chilled methanol for 10 minutes. Non-specific antibody binding to the plates was blocked using 50 μL 1×BSA blocking buffer (Thermo-37520, 10-fold dilution by Phosphate-Buffered Saline Tween (PBST) for at least 1 hour at room temperature.
(§5) The amount of phosphor-ERK was determined using an antibody specific for phosphorylated form of ERK. Primary antibody (pERK, CST-4370, Cell Signaling Technology) was diluted 1:300 in blocking buffer, with 50 μL aliquoted to each well, and incubated overnight at 4° C. Cells was washed five times for 5 minutes with PBST. Secondary antibody (HRP-linked anti-rabbit IgG, CST-7074, Cell Signaling Technology) was diluted 1:1000 in blocking buffer, and 50 μL was added to each well and incubated 1-2 hrs at room temperature. Cells was washed 5 times for 5 minutes with PBST, 100 μL TMB ELISA substrate (abcam-ab171523) were added and gently shake for 20 minutes. 50 μL stop solution (abcam-ab171529) were added, and then read the signal (OD450) by EnVision.
(§6) IC50 was determined by fitting a 4-parameter sigmoidal concentration response model.

[7] = test system: phosphorylation of ERK, KRAS G12D in AGS cells; assay: pERK inhibition assay, G12D; type: cell-based, human; details: Homo sapiens, 4 hours of incubation
Procedure: as §4, §5, §6

[8] = test system: phosphorylation of ERK, KRAS G12V in SW620; assay: pERK inhibition assay, G12V; type: cell-based, human; details: Homo sapiens, SW-620; SW620, 4 hours of incubation
Procedure: as §4, §5, §6

Row | SMILES | IC50 [1] [µM] | IC50 (AGS cells (KRAS G12D)) [µM] | IC50 (SW620 cells (KRAS G12V)) [µM] | IC50 (KRAS G12C-BRAF complex [2]) [µM] | IC50 (KRAS G12C-BRAF complex [3]) [µM] | IC50 [4] [µM] | IC50 [5] [µM] | IC50 [6] [µM] | IC50 [7] [µM] | IC50 [8] [µM]
1 | CO[C@@H](C)c1ncc(N2CCN(C)CC2)cc1-c1c2c3cc(c(F)cc3n1CC(F)(F)F)-c1csc(n1)C[C@H](NC(=O)[C@H](C(C)C)N(C)C(=O)[C@H]1CC[C@H](C#CC(F)(F)F)CC1)C(=O)N1CCC[C@H](N1)C(=O)OCC(C)(C)C2 (atropisomer, axis not shown; (M)) [Example 9, trans-N-[(1S)-1-[[(7S,13S)-24-fluoro-(20M)-20-[2-[(1S)-1-methoxyethyl]-5-(4-methylpiperazin-1-yl)-3-pyridyl]-17,17-dimethyl-8,14-dioxo-21-(2,2,2-trifluoroethyl)-15-oxa-4-thia-9,21,27,28-tetrazapentacyclo[17.5.2.1^2,5.1^9,13.0^22,26]octacosa-1(25),2,5(28),19,22(26),23-hexaen-7-yl]carbamoyl]-2-methyl-propyl]-N-methyl-4-(3,3,3-trifluoroprop-1-ynyl)cyclohexanecarboxamide] | 0.436 | > 5 | > 5 | 0.418 | 0.819 | 3.01 | 1.98 | 0.292 | 1.77 | 0.498
2 | CO[C@@H](C)c1ncc(N2CCN(C)CC2)cc1-c1c2c3cc(c(F)cc3n1CC(F)(F)F)-c1csc(n1)C[C@H](NC(=O)[C@H](C(C)C)N(C)C(=O)[C@H]1CC[C@@H](C#CC(F)(F)F)CC1)C(=O)N1CCC[C@H](N1)C(=O)OCC(C)(C)C2 (atropisomer, axis not shown; (M)) [Example 10, cis-N-[(1S)-1-[[(7S,13S)-24-fluoro-(20M)-20-[2-[(1S)-1-methoxyethyl]-5-(4-methylpiperazin-1-yl)-3-pyridyl]-17,17-dimethyl-8,14-dioxo-21-(2,2,2-trifluoroethyl)-15-oxa-4-thia-9,21,27,28-tetrazapentacyclo[17.5.2.1^2,5.1^9,13.0^22,26]octacosa-1(25),2,5(28),19,22(26),23-hexaen-7-yl]carbamoyl]-2-methyl-propyl]-N-methyl-4-(3,3,3-trifluoroprop-1-ynyl)cyclohexanecarboxamide] | 0.078 | 0.876 | > 5 | 0.12 | > 10 | 1.91 | 1.48 | 0.048 | 0.152 | 0.065
3 | CO[C@@H](C)c1ncc(N2CCN(C)CC2)cc1-c1c2c3c(F)c(ccc3n1CC(F)(F)F)-c1csc(n1)C[C@H](NC(=O)[C@H](C(C)C)N(C)C(=O)[C@H]1C[C@@H](C#CC(F)(F)F)C1)C(=O)N1CCC[C@H](N1)C(=O)OCC(C)(C)C2 (atropisomer, axis not shown; (M)) [Example 12, cis-N-[(1S)-1-[[(7S,13S)-25-fluoro-(20M)-20-[2-[(1S)-1-methoxyethyl]-5-(4-methylpiperazin-1-yl)-3-pyridyl]-17,17-dimethyl-8,14-dioxo-21-(2,2,2-trifluoroethyl)-15-oxa-4-thia-9,21,27,28-tetrazapentacyclo[17.5.2.1^2,5.1^9,13.0^22,26]octacosa-1(25),2,5(28),19,22(26),23-hexaen-7-yl]carbamoyl]-2-methyl-propyl]-N-methyl-3-(3,3,3-trifluoroprop-1-ynyl)cyclobutanecarboxamide] | 0.033 | 3.1 | 0.36 | 0.067 | 0.063 | 1.47 | 0.484 | 0.092 | 0.667 | 0.201
4 | CO[C@@H](C)c1ncc(N2CCN(C)CC2)cc1-c1c2c3cc(c(F)cc3n1CC(F)(F)F)-c1csc(n1)C[C@H](NC(=O)[C@H](C(C)C)N(C)C(=O)[C@H]1C[C@@H](C#Cc3ncc(C(F)(F)F)cn3)C1)C(=O)N1CCC[C@H](N1)C(=O)OCC(C)(C)C2 (atropisomer, axis not shown; (M)) [Example 13, cis-N-[(1S)-1-[[(7S,13S)-24-fluoro-(20M)-20-[2-[(1S)-1-methoxyethyl]-5-(4-methylpiperazin-1-yl)-3-pyridyl]-17,17-dimethyl-8,14-dioxo-21-(2,2,2-trifluoroethyl)-15-oxa-4-thia-9,21,27,28-tetrazapentacyclo[17.5.2.1^2,5.1^9,13.0^22,26]octacosa-1(25),2,5(28),19,22(26),23-hexaen-7-yl]carbamoyl]-2-methyl-propyl]-N-methyl-3-[2-[5-(trifluoromethyl)pyrimidin-2-yl]ethynyl]cyclobutanecarboxamide] | 0.006 | 0.328 | 0.036 | 0.22 | 0.065 | > 10 | > 10 | 0.045 | 1.81 | 0.056
